These molecules were tested against T1, hMAGL (Homo sapiens, UniProt Q99685) (assay: 2-AG assay: MAGL inhibition, hydrolysis of 2-arachidonoylglycerol to arachidonic acid followed by mass spectrometry).
T1 sequence (Q99685 1-303): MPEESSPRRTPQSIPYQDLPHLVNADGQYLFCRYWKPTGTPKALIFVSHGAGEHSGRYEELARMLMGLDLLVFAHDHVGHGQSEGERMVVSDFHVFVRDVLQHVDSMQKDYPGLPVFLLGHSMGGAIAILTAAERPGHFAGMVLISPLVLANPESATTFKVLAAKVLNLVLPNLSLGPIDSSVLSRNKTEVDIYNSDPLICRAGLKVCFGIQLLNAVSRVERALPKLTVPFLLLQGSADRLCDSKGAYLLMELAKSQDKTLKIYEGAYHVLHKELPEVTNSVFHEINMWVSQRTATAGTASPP
Format: biochemical
Method in brief: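 Read-out is LC-MS/MS of arachidonic acid released from 2-arachidonoylglycerol (8 μM final), normalised to d8-arachidonic acid internal standard after acetonitrile quench. Enzyme […] and compound were pre-mixed 15 min, then reacted 30 min, both at RT, in Tris/EDTA buffer with 0.01% Tween-20 and 2.5% DMSO.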

IC50 [µM]	SMILES
0.0528	O=C(N1CC2(CC(Cc3n[nH]c(C(F)(F)F)n3)C2)C1)N1CC2(CC(n3cnc(C(F)F)n3)C2)C1 [Example 320, [6-[3-(difluoromethyl)-1,2,4-triazol-1-yl]-2-azaspiro[3.3]heptan-2-yl]-[6-[[5-(trifluoromethyl)-1H-1,2,4-triazol-3-yl]methyl]-2-azaspiro[3.3]heptan-2-yl]methanone]
0.0449	O=C(N1CC2(CC(Cc3cn(CC(F)(F)F)nn3)C2)C1)N1CC2(CC(n3cnc(C4(O)CC4)n3)C2)C1 [Example 254, [6-[3-(1-hydroxycyclopropyl)-1,2,4-triazol-1-yl]-2-azaspiro[3.3]heptan-2-yl]-[6-[[1-(2,2,2-trifluoroethyl)triazol-4-yl]methyl]-2-azaspiro[3.3]heptan-2-yl]methanone]
0.165	CS(=O)(=O)c1cnn(CC2CC3(C2)CN(C(=O)N2CC4(CC(n5cnc(C6(O)CC6)n5)C4)C2)C3)c1 [Example 313, [6-[3-(1-hydroxycyclopropyl)-1,2,4-triazol-1-yl]-2-azaspiro[3.3]heptan-2-yl]-[6-[(4-mesylpyrazol-1-yl)methyl]-2-azaspiro[3.3]heptan-2-yl]methanone]
0.672	O=C(N1CC2(CC(n3cnc(C4CC4)n3)C2)C1)N1CC2(CN(Cc3nc(C(F)(F)F)n[nH]3)C2)C1 [Example 230, [6-(3-cyclopropyl-1,2,4-triazol-1-yl)-2-azaspiro[3.3]heptan-2-yl]-[6-[[3-(trifluoromethyl)-1H-1,2,4-triazol-5-yl]methyl]-2,6-diazaspiro[3.3]heptan-2-yl]methanone]
0.0681	O=C(N1CC2(CCN(Cc3cc(C(F)(F)F)no3)CC2)C1)N1CC2(CC(n3cnc(C(F)(F)F)n3)C2)C1 [Example 317, [7-[[3-(trifluoromethyl)isoxazol-5-yl]methyl]-2,7-diazaspiro[3.5]nonan-2-yl]-[6-[3-(trifluoromethyl)-1,2,4-triazol-1-yl]-2-azaspiro[3.3]heptan-2-yl]methanone]
0.117	CC(C)(C)c1c[nH]c(CN2CC3(C2)CN(C(=O)N2CC4(CC(n5cnc(C(F)(F)F)n5)C4)C2)C3)n1 [Example 252, [6-[(4-tert-butyl-1H-imidazol-2-yl)methyl]-2,6-diazaspiro[3.3]heptan-2-yl]-[6-[3-(trifluoromethyl)-1,2,4-triazol-1-yl]-2-azaspiro[3.3]heptan-2-yl]methanone]
1.38	Cn1ncc(P(C)(C)=O)c1CN1CC2(C1)CN(C(=O)N1CC3(CC(n4cnc(C(F)(F)F)n4)C3)C1)C2 [Example 227, [6-[(4-dimethylphosphoryl-2-methyl-pyrazol-3-yl)methyl]-2,6-diazaspiro[3.3]heptan-2-yl]-[6-[3-(trifluoromethyl)-1,2,4-triazol-1-yl]-2-azaspiro[3.3]heptan-2-yl]methanone]

Further lines, the molecule ahead of its results:

SMILES	IC50 [µM]
Cc1cc(C(F)F)n(CC2CC3(C2)CN(C(=O)N2CC4(CC(n5cnc(C(F)(F)F)n5)C4)C2)C3)n1 [Example 91, [6-[[5-(difluoromethyl)-3-methyl-pyrazol-1-yl]methyl]-2-azaspiro[3.3]heptan-2-yl]-[6-[3-(trifluoromethyl)-1,2,4-triazol-1-yl]-2-azaspiro[3.3]heptan-2-yl]methanone]	0.00102
CC(C)(C)c1nnc(CN2CC3(C2)CN(C(=O)N2CC4(CC(n5cnc(C6CC6)n5)C4)C2)C3)s1 [Example 209, [6-[(5-tert-butyl-1,3,4-thiadiazol-2-yl)methyl]-2,6-diazaspiro[3.3]heptan-2-yl]-[6-(3-cyclopropyl-1,2,4-triazol-1-yl)-2-azaspiro[3.3]heptan-2-yl]methanone]	0.00528
O=C(N1CC2(CC(Cc3n[nH]c(C4(C(F)(F)F)CC4)n3)C2)C1)N1CC2(CC(n3cnc(C(F)(F)F)n3)C2)C1 [Example 101, [6-[[5-[1-(trifluoromethyl)cyclopropyl]-1H-1,2,4-triazol-3-yl]methyl]-2-azaspiro[3.3]heptan-2-yl]-[6-[3-(trifluoromethyl)-1,2,4-triazol-1-yl]-2-azaspiro[3.3]heptan-2-yl]methanone]	0.00089
O=C(N1CC2(CCC(Cc3nnc(C(F)(F)F)[nH]3)CC2)C1)N1CC2(CC(n3cnc(C(F)(F)F)n3)C2)C1 [Example 34, [6-[3-(trifluoromethyl)-1,2,4-triazol-1-yl]-2-azaspiro[3.3]heptan-2-yl]-[7-[[5-(trifluoromethyl)-4H-1,2,4-triazol-3-yl]methyl]-2-azaspiro[3.5]nonan-2-yl]methanone]	0.0218
O=C(N1CC2(CC(Cc3cn(CC(F)(F)F)nc3C(F)(F)F)C2)C1)N1CC2(CC(n3cnc(C4(O)CC4)n3)C2)C1 [Example 120, [6-[3-(1-hydroxycyclopropyl)-1,2,4-triazol-1-yl]-2-azaspiro[3.3]heptan-2-yl]-[6-[[1-(2,2,2-trifluoroethyl)-3-(trifluoromethyl)pyrazol-4-yl]methyl]-2-azaspiro[3.3]heptan-2-yl]methanone]	0.00081
O=C(N1CC2(CC(c3cc(C4CC4)n[nH]3)C2)C1)N1CC2(CN(Cc3ncc(C(F)F)s3)C2)C1 [Example 185, [6-(3-cyclopropyl-1H-pyrazol-5-yl)-2-azaspiro[3.3]heptan-2-yl]-[6-[[5-(difluoromethyl)thiazol-2-yl]methyl]-2,6-diazaspiro[3.3]heptan-2-yl]methanone]	0.00344
Cc1cc(C(F)(F)F)n(CC2CC3(C2)CN(C(=O)N2CC4(CC(n5cnc(C6CC6)n5)C4)C2)C3)n1 [Example 72, [6-(3-cyclopropyl-1,2,4-triazol-1-yl)-2-azaspiro[3.3]heptan-2-yl]-[6-[[3-methyl-5-(trifluoromethyl)pyrazol-1-yl]methyl]-2-azaspiro[3.3]heptan-2-yl]methanone]	0.00309
O=C(N1CC2(CC(Cc3cc(C4CC4)n[nH]3)C2)C1)N1CC2(CC(n3cnc(C4(O)CC4)n3)C2)C1 [Example 125, [6-[(3-cyclopropyl-1H-pyrazol-5-yl)methyl]-2-azaspiro[3.3]heptan-2-yl]-[6-[3-(1-hydroxycyclopropyl)-1,2,4-triazol-1-yl]-2-azaspiro[3.3]heptan-2-yl]methanone]	0.00225
O=C(N1CC2(CCN(Cc3nc(C(F)(F)F)cs3)CC2)C1)N1CC2(CC(n3cnc(C4(O)CC4)n3)C2)C1 [Example 175, [6-[3-(1-hydroxycyclopropyl)-1,2,4-triazol-1-yl]-2-azaspiro[3.3]heptan-2-yl]-[7-[[4-(trifluoromethyl)thiazol-2-yl]methyl]-2,7-diazaspiro[3.5]nonan-2-yl]methanone]	0.0812
O=C(N1CC2(CC(Cn3nccc3C(F)(F)F)C2)C1)N1CC2(CC(c3cc(C4(O)CC4)n[nH]3)C2)C1 [Example 5]	0.0017
O=C(N1CC2(CC(n3cnc(C4CC4)n3)C2)C1)N1CC2(CN(Cc3nnn(CC(F)(F)F)n3)C2)C1 [Example 194, [6-(3-cyclopropyl-1,2,4-triazol-1-yl)-2-azaspiro[3.3]heptan-2-yl]-[6-[[2-(2,2,2-trifluoroethyl)tetrazol-5-yl]methyl]-2,6-diazaspiro[3.3]heptan-2-yl]methanone]	0.149
O=C(N1CC2(CC(n3cnc(C4(O)CC4)n3)C2)C1)N1CC2(CN(Cc3nc(C4CC4)ns3)C2)C1 [Example 45, [6-[(3-cyclopropyl-1,2,4-thiadiazol-5-yl)methyl]-2,6-diazaspiro[3.3]heptan-2-yl]-[6-[3-(1-hydroxycyclopropyl)-1,2,4-triazol-1-yl]-2-azaspiro[3.3]heptan-2-yl]methanone]	0.118
O=C(N1CC2(CC(n3cnc(C4CC4)n3)C2)C1)N1CC2(CN(Cc3cn[nH]c3C(F)(F)F)C2)C1 [Example 50, [6-(3-cyclopropyl-1,2,4-triazol-1-yl)-2-azaspiro[3.3]heptan-2-yl]-[6-[[5-(trifluoromethyl)-1H-pyrazol-4-yl]methyl]-2,6-diazaspiro[3.3]heptan-2-yl]methanone]	0.0079
O=C(N1CC2(CC(Cc3nc(CC(F)(F)F)n[nH]3)C2)C1)N1CC2(CC(n3cnc(C(F)(F)F)n3)C2)C1 [Example 204, [6-[[3-(2,2,2-trifluoroethyl)-1H-1,2,4-triazol-5-yl]methyl]-2-azaspiro[3.3]heptan-2-yl]-[6-[3-(trifluoromethyl)-1,2,4-triazol-1-yl]-2-azaspiro[3.3]heptan-2-yl]methanone]	0.0258
Cc1nn(CC(F)(F)F)cc1CN1CC2(C1)CN(C(=O)N1CC3(CC(n4cnc(C5CC5)n4)C3)C1)C2 [Example 113, [6-(3-cyclopropyl-1,2,4-triazol-1-yl)-2-azaspiro[3.3]heptan-2-yl]-[6-[[3-methyl-1-(2,2,2-trifluoroethyl)pyrazol-4-yl]methyl]-2,6-diazaspiro[3.3]heptan-2-yl]methanone]	0.133
O=C(N1CC2(CCN(Cc3cc(C(F)(F)F)[nH]n3)CC2)C1)N1CC2(CC(n3cnc(C4CC4)n3)C2)C1 [Example 29, [6-(3-cyclopropyl-1,2,4-triazol-1-yl)-2-azaspiro[3.3]heptan-2-yl]-[7-[[5-(trifluoromethyl)-1H-pyrazol-3-yl]methyl]-2,7-diazaspiro[3.5]nonan-2-yl]methanone]	0.0042
Cn1ncc(CN2CC3(C2)CN(C(=O)N2CC4(CC(c5cc(C6CC6)n[nH]5)C4)C2)C3)c1C(F)(F)F [Example 163, [6-(3-cyclopropyl-1H-pyrazol-5-yl)-2-azaspiro[3.3]heptan-2-yl]-[6-[[1-methyl-5-(trifluoromethyl)pyrazol-4-yl]methyl]-2,6-diazaspiro[3.3]heptan-2-yl]methanone]	0.0033

— patent US20260374756A1, “HETEROCYCLIC COMPOUNDS AS INHIBITORS OF MONOACYLGLYCEROL LIPASE (MAGL)” (Hoffmann-La Roche Inc., priority 2022, published 2026)
